The values below come from patent US20140135359A1, “METHODS OF DESIGNING, PREPARING, AND USING NOVEL PROTONOPHORES” (priority 2012, published 2014).

Assay [1] deals with isolated rat liver mitochondria. Nature of the assay: Uncoupling activity: increase in basal (state 4) oxygen consumption by oxygraphy. It counts as biochemical. Particulars: for Uncoupling (%): increase in basal (state 4) oxygen consumption as % of average ADP-stimulated (state 3) rate in vehicle-treated mitochondria.
The subject of assay [2] is glucose-6-phosphatase (G6Pase) activity in H4IIE hepatocytes. Nature of the assay: Glucose-6-phosphatase activity in H4IIE hepatocytes. The following applies: 25 μM, 16 h. The assay is classed as cell-based, murine. As to the method:
2.4 Glucose-6-phosphatase activity in H4IIE hepatocytes: H4IIE murine hepatocytes (American Type Culture Collection) were cultured to confluence in 12-well plates in DMEM supplemented with 10% FBS and antibiotics. […] Effects of test compounds on cellular viability were assessed by measuring the release of lactate dehydrogenase (LDH) into the culture medium at the end of a 16 h treatment using a commercial kit (Cytotoxicity Detection Kit; Roche Diagnostics; Laval, QC) as per the manufacturer's instructions; LDH release was expressed as % of total (medium+lysate) LDH content for each well. Cells were also routinely inspected for abnormal morphology by phase-contrast microscopy at the conclusion of the treatment period. Following treatment, cells were washed in HEPES-buffered saline (10 mM HEPES, pH 7.4, 150 mM NaCl) at 37° C. Glucose-6-phosphatase (G6Pase) activity was assessed by measuring the rate of glucose formation in the presence of a non-limiting amount of glucose-6-phosphate (G6P), as done by others [39B, 40B]. Glucose production was measured with a commercial glucose assay kit (AutoKit Glucose; Wako Diagnostics; Richmond, Va.). Two hundred μl of AutoKit Glucose buffer solution diluted 1:4 in water were added to each well. Cells were then lysed by the addition of 50 μl of 0.05% Triton X-100 in similarly diluted AutoKit Glucose buffer solution. […] At 37° C., after which time 500 μl of AutoKit Glucose color reagent were added and incubation was continued for exactly 5 min. Samples were then rapidly transferred to microcentrifuge tubes. Fifty μl were removed for assay of total protein content in order to account for effects of test compounds on cellular viability or proliferation [41B]. A commercial protein assay kit based on the Bradford method was used (Protein Assay; Bio-Rad Laboratories; Hercules, Calif.). […] The remaining volume was centrifuged at 3000×g for 5 min. Absorbance of the supernatant was measured at 505 nm at ambient temperature and glucose concentration was calculated from a standard curve performed in parallel. Control wells without exogenous G6P were included on each plate for each treatment condition and activity measured from these wells was subtracted from activity measured in the presence of exogenous G6P. G6Pase activity calculated in this way was then expressed normalized to protein content on a well-by-well basis. Two independent experiments in cells of different passages were performed for each of the selected test compounds, with four to six replicates per condition per experiment.
Protocol for assay of glucose-6-phosphatase activity in H4IIE or other hepatocytes: H4IIE murine hepatocytes (American Type Culture Collection) may be cultured to confluence in 12-well plates in Dulbecco's modified Eagle's medium (DMEM) supplemented with 10% fetal bovine serum (FBS), and antibiotics. […] Effects of test compounds on cellular viability may be assessed by measuring the release of lactate dehydrogenase (LDH) into the culture medium at the end of a 16 hour treatment using a commercial kit (e.g., Cytotoxicity Detection Kit; Roche Diagnostics; Laval, QC) as per the manufacturer's instructions; LDH release may be expressed as % of total (i.e., medium+lysate) LDH content for each well. Cells may also be routinely inspected for abnormal morphology by phase-contrast microscopy at the conclusion of the treatment period. Following treatment, cells may be washed in HEPES-buffered saline (10 mM HEPES, pH 7.4, 150 mM NaCl) at 37° C. Glucose-6-phosphatase (G6Pase) activity may be assessed by measuring the rate of glucose formation in the presence of a non-limiting amount of glucose-6-phosphate (G6P). Glucose production may be measured with a commercial glucose assay kit (e.g., AutoKit Glucose; Wako Diagnostics; Richmond, Va.). Two hundred μl of AutoKit Glucose buffer solution diluted 1:4 in water may be added to each well.

Consider `O=[N+]([O-])c1ccc(O)c([N+](=O)[O-])c1` [2,4-dinitrophenol], for which the uncoupling activity result in assay [1] (50 μM in 0.1% DMSO (FIG. 19)) was “increased basal oxygen consumption above the level of ADP-stimulated consumption”. In addition, the measured uncoupling activity in assay [1] (100 μM) is listed as 143%. Moreover, in assay [1] (dose-escalation, logarithmic scales), the “slope of the linear portion of the concentration-to-activity relationship” value is reported as 0.89. For the same molecule, in assay [1] (dose-escalation, read-out: U50 (concentration at which 50% uncoupling is induced)), the EC50 was roughly 10 µM. Besides, the entries for the “Uncoupling (%)” value in assay [1] (test conc. 25 μM) and in assay [1] (test conc. 100 μM) were 127 ± 11% and 143 ± 5%, respectively. For the same molecule, the “suppression of G6Pase activity per mg total protein” value in assay [2] came out at 39%.
